Measurements from paper PMC12461339, “Benzoylselenoureas: A Novel Dual-Action Inhibitor Targeting Fungal Growth and Urease Activity in Cryptococcus neoformans” (ACS Omega, 2025).
pIC50: −log10 of the molar value. In brackets after ≈: the same amount, converted by molar mass. Where two headings read alike, the source gives them in different places.

Columns and labels:
yeast urease activity = target: T1, yeast urease activity (Cryptococcus neoformans, UniProt O13465); assay: Inhibition of yeast urease activity in urea (Christensen) medium, colour change (MICure); type: cell-based
T1 construct: endogenous in cells; host or cells: Cryptococcus neoformans H99 (ATCC 208821) yeasts in Christensen urea broth
T1 sequence (O13465 whole entry): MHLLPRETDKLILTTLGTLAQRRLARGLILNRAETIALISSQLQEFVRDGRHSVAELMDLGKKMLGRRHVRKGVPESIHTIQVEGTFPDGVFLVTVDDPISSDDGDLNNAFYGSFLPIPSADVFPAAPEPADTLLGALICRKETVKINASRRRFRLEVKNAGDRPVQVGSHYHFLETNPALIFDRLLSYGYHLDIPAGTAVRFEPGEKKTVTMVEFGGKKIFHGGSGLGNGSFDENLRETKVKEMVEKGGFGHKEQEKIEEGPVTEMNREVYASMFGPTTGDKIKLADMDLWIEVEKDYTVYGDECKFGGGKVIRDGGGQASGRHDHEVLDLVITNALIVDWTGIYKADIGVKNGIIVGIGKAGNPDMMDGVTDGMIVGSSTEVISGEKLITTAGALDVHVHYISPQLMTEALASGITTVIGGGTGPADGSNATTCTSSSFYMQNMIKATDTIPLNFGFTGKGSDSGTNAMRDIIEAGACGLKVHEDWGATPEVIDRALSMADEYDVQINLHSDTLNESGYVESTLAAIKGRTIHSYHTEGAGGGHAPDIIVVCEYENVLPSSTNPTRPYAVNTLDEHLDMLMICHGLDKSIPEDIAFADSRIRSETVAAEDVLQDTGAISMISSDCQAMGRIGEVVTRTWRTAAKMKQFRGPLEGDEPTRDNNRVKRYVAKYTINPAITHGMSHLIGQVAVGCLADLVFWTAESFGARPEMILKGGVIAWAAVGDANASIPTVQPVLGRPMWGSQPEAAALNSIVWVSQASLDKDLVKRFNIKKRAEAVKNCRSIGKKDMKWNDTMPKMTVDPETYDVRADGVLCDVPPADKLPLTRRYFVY
Experimental: The inhibitory activity against yeast urease was assessed using Christensen’s medium, which contains urea to induce URE1 gene expression. […] Even in the presence of fungal growth, inhibition of urease activity was evidenced by the absence of medium color change, indicating suppressed ammonia production.
(§1) C. neoformans H99 (or ATCC 208821), a standard strain, was used to evaluate the antifungal activity of BSU1-BSU11 and BTU1-BTU11 compounds using the broth microdilution method. The assay was performed in two different culture media: the standard medium RPMI 1640 buffered with […] (RMPI), and the Christensen broth (urea medium: 1 g/L peptone, 1 g/L dextrose, 5 g/L sodium chloride, 2 g/L potassium phosphate, 20 g/L urea, 12 mg/L phenol red, pH 7.0). The compounds were dissolved in dimethyl sulfoxide (DMSO) and diluted in both media, obtaining final concentrations from 0.03 to 128 mg/L in a 96-well plate and final DMSO concentration below 0.5%, considered nontoxic. For assay, yeasts were distributed in each well to obtain a final inoculum of 0.5–2.5 × 10^3 CFU/mL, and the plate was incubated at 35 °C for 48 h.
(§2) The MIC values were determined in both media and were defined as the lowest concentrations of BSU1-BSU11 and BTU1-BTU11 that inhibited 50% of fungal growth visually compared with untreated yeasts (growth control). In addition, the urease activity was indicated by medium color change from orange to pink due to ammonia production and the MICure was defined as the lowest concentration that inhibited the urease activity by visual inspection in urea medium with no color changes. For both assays, two controls were included: untreated yeast group for observation of fungal growth pattern or intracellular urease activity, and wells containing only medium for assay sterility control.

C. neoformans H99 [1] = assay: Broth microdilution antifungal assay (MIC) in RPMI or urea medium; type: cell-based; conditions: Cryptococcus neoformans
Experimental: as §1, §2

C. neoformans H99 [2] = assay: Minimum fungicidal concentration by subculturing after MIC reading; type: cell-based; conditions: Cryptococcus neoformans
Experimental: After MIC readings, the MFC values were determined by subculturing, at 35 °C for 48 h, of all concentrations that inhibited the fungal growth; and then MFC was defined as the lowest concentration of the compound capable of reducing ≥99% viability of the initial fungal inoculum. ,

C. neoformans urease = target: T2, C. neoformans urease (Cryptococcus neoformans, UniProt O13465); assay: Urease activity in crude protein extract, indophenol method; type: biochemical; conditions: ureIC50, BSU series
T2 construct: endogenous in cells; host or cells: Cryptococcus neoformans H99, lysed by sonication; dialysed and lyophilised soluble fraction (total protein)
T2 sequence (O13465 whole entry): as above
Experimental: C. neoformans H99 yeasts were cultivated in 100 mL of Christensen broth for 72 h at 35 °C by shaking at 200 rpm for the obtention of urease as previously described. Briefly, the yeasts were ruptured using a lysis buffer (40 mM Tris-HCl, 20 mM dithiothreitol, 4% Triton X-100, 1 mM ethylenediaminetetraacetic acid, 2 mM phenylmethylsulfonyl fluoride, protease inhibitor cocktail) and an ultrasonic sonicator. After centrifugation, the soluble fraction was dialyzed in a dialysis membrane submerged in 10 mM sodium phosphate buffer, pH 7.0; the sample was lyophilized and stored at −20 °C. Before the assay, the sample was resuspended in 1 mL of sodium phosphate buffer (10 mM, pH 7.0), and the total protein was quantified by the Bradford method.
The urease activity was determined by the indophenol method. In a 96-well microplate, 10 μL of 100 mM urea was added to 45 μL of total protein and 45 μL of BSU1-BSU11 (concentrations of 0.06–1000 μg/L) in phosphate buffer. The reaction was maintained for 10 min under shaking at 600 rpm, at room temperature. Then, 45 μL of solution A (1% phenol; 0.005% sodium nitroprusside) and 70 μL of solution B (0.5% sodium hydroxide; 0.1% sodium hypochlorite) were immediately added to the wells in the dark and incubated for 5 min at 50 °C under shaking at 600 rpm. Urease activity was quantified by measuring absorbance at 670 nm. The inhibitory concentration capable of inhibiting 50% of urease activity (ureIC50) was determined by nonlinear regression calculation using the GraphPad Prism 5.0 software.

[3] = BTU series, 100% inhibition of yeast urease activity in urea medium
[4] = Table S1, urea medium, 100% inhibition of yeast urease activity
[5] = H99, BTU series, 50% inhibition of fungal growth, RPMI medium, read-out: MIC RPMI
[6] = H99, BTU series, 50% inhibition of fungal growth, urea medium, read-out: MIC urea
[7] = H99, Table S1, RPMI medium, C. neoformans H99, read-out: MIC
[8] = H99, Table S1, urea medium, C. neoformans H99, read-out: MIC
[9] = H99, BTU series, after assay in RPMI medium, read-out: MFC
[10] = H99, Table S1, RPMI medium line, read-out: MFC
[11] = H99, Table S1, urea medium line, read-out: MFC
[12] = BSU series, 100% inhibition of yeast urease activity in urea medium
[13] = H99, 48 h, read-out: MIC RPMI, BSU series, 50% inhibition of fungal growth, RPMI medium, 35 °C, 48 h
[14] = H99, 48 h, read-out: MIC urea, BSU series, 50% inhibition of fungal growth, urea medium, 35 °C, 48 h
[15] = H99, Table S1, RPMI medium, C. neoformans H99
[16] = H99, Table S1, urea medium, C. neoformans H99
[17] = H99, BSU series, after assay in RPMI medium, ≥99% reduction of viability
[18] = H99, Table S1, RPMI medium line
[19] = H99, Table S1, urea medium line

Row | SMILES | MICURE (yeast urease activity; [3]) [mg/L] | MICURE (yeast urease activity; [4]) [mg/L] | MIC (C. neoformans H99 [1]; [5]) [µg/mL] | MIC (C. neoformans H99 [1]; [6]) [µg/mL] | MIC (C. neoformans H99 [1]; [7]) [µg/mL] | MIC (C. neoformans H99 [1]; [8]) [µg/mL] | MFC (C. neoformans H99 [2]; [9]) [µg/mL] | MFC (C. neoformans H99 [2]; [10]) [µg/mL] | MFC (C. neoformans H99 [2]; [11]) [µg/mL] | pIC50 (C. neoformans urease) | MICURE (yeast urease activity; [12]) [mg/L] | further results
1 | CC(C)(C)c1ccc(NC(=S)NC(=O)c2ccccc2)cc1 [BTU3] | 0.5 | 0.5 | 8 (≈ 25.6 µM) | 1 (≈ 3.2 µM) | 8 (≈ 25.6 µM) | 1 (≈ 3.2 µM) | > 128 | > 128 | 128 (≈ 410 µM) | – | – | –
2 | O=C(NC(=[Se])Nc1ccc(Br)cc1)c1ccccc1 [BSU8] | – | 0.5 | – | – | – | – | – | – | – | 8.39 | 8 | MIC (C. neoformans H99 [1]; [13]): 128 µg/mL (≈ 335 µM); MIC (C. neoformans H99 [1]; [14]): 8 µg/mL (≈ 20.9 µM); MIC (C. neoformans H99 [1]; [15]): 8 µg/mL (≈ 20.9 µM); MIC (C. neoformans H99 [1]; [16]): 0.5 µg/mL (≈ 1.31 µM); MFC (C. neoformans H99 [2]; [17]): > 128 µg/mL; MFC (C. neoformans H99 [2]; [18]): 8 µg/mL (≈ 20.9 µM); MFC (C. neoformans H99 [2]; [19]): 0.5 µg/mL (≈ 1.31 µM)
3 | O=C(NC(=[Se])Nc1ccccc1)c1ccccc1 [BSU1] | – | 0.06 | – | – | 2 (≈ 6.6 µM) | 0.06 (≈ 0.198 µM) | – | 2 (≈ 6.6 µM) | 0.12 (≈ 0.396 µM) | 8.31 | 0.06 | MIC (C. neoformans H99 [1]; H99, 48 h, BSU series, 50% inhibition of fungal growth, RPMI medium, 35 °C, 48 h, read-out: MIC RPMI): 2 µg/mL (≈ 6.6 µM); MIC (C. neoformans H99 [1]; H99, 48 h, BSU series, 50% inhibition of fungal growth, urea medium, 35 °C, 48 h, read-out: MIC urea): 0.06 µg/mL (≈ 0.198 µM); MFC (C. neoformans H99 [2]; H99, BSU series, after assay in RPMI medium, ≥99% reduction of viability, read-out: MFC): 2 µg/mL (≈ 6.6 µM)
4 | O=C(NC(=S)Nc1ccc(Cl)cc1)c1ccccc1 [BTU6] | <0.25 | ≤ 0.25 | > 128 | 1 (≈ 3.44 µM) | > 128 | 32 (≈ 110 µM) | > 128 | > 128 | 128 (≈ 440 µM) | – | – | –
5 | COc1ccccc1NC(=[Se])NC(=O)c1ccccc1 [BSU4] | – | 0.25 | – | – | – | – | – | – | – | 8.63 | 0.5 | MIC (C. neoformans H99 [1]; [13]): 8 µg/mL (≈ 24 µM); MIC (C. neoformans H99 [1]; [14]): 0.5 µg/mL (≈ 1.5 µM); MIC (C. neoformans H99 [1]; [15]): 16 µg/mL (≈ 48 µM); MIC (C. neoformans H99 [1]; [16]): 0.5 µg/mL (≈ 1.5 µM); MFC (C. neoformans H99 [2]; [17]): 8 µg/mL (≈ 24 µM); MFC (C. neoformans H99 [2]; [18]): 16 µg/mL (≈ 48 µM); MFC (C. neoformans H99 [2]; [19]): 0.5 µg/mL (≈ 1.5 µM)
6 | O=C(NC(=S)Nc1ccccc1)c1ccccc1 [BTU1] | 32 | 32 | > 128 | 32 (≈ 125 µM) | > 128 | 32 (≈ 125 µM) | > 128 | > 128 | 128 (≈ 499 µM) | – | – | –
7 | O=C(NC(=S)Nc1cccc(Cl)c1)c1ccccc1 [BTU7] | <0.25 | 2 | > 128 | 4 (≈ 13.8 µM) | > 128 | 32 (≈ 110 µM) | > 128 | > 128 | 64 (≈ 220 µM) | – | – | –
8 | COc1cccc(NC(=S)NC(=O)c2ccccc2)c1 [BTU5] | 4 | ≤ 0.25 | 32 (≈ 112 µM) | 4 (≈ 14 µM) | > 128 | 4 (≈ 14 µM) | > 128 | > 128 | > 128 | – | – | –
9 | COc1ccccc1NC(=S)NC(=O)c1ccccc1 [BTU4] | 32 | ≤ 0.25 | > 128 | 64 (≈ 223 µM) | > 128 | 1 (≈ 3.49 µM) | > 128 | > 128 | > 128 | – | – | –
